Results reported in US20080287513A1, “Topical compositions containing metronidazole” (priority 2007, published 2008).

Key:
[1] = Physical stability test of aqueous metronidazole compositions (crystal formation or precipitation); format: physicochemical; conditions: for Results from stability test: 24 h room temperature then 7 days at about 4 °C
Protocol: The solubility enhancing effect of the combination of niacinamide and urea in increasing the solubility of metronidazole in the aqueous compositions is evaluated by physical stability of the prepared compositions.
Therefore, the formulations are subject to a physical stability test. The protocol for the stability test is as follows: metronidazole and the solubility enhancing agents are combined with water either at room temperature or elevated temperature while stirring until dissolved. The solutions are permitted to cool to room temperature. Customary auxiliaries and additives may be added to the aqueous solutions containing solubilized metronidazole and solubility enhancing agents. The solutions may be gelled by using the suitable gelling agents. The compositions both in gel or solution form are then packaged in clear glass vials and sealed. The vials are kept at room temperature for 24 hours and monitored for crystal formation or precipitation. After 24 hours, the vials are placed in a refrigerator maintained at a temperature of about 4° C. for 7 days. After 7 days, the vials are removed from the refrigerator. Evidence of crystal formation or precipitation is examined.
Each formulation was prepared by combining niacinamide and metronidazole in water (q.s 100%). The mixture was kept at a temperature of about 45° C. while stirring until dissolved. The solutions were permitted to cool to room temperature, packaged and sealed in glass vials. The stability tests described in Example 1 were performed and the test results were recorded.
Each formulation was prepared by combining urea and metronidazole in water (q.s 100%). The mixture was kept at a temperature of about 45° C. while stirring until dissolved. The solutions were permitted to cool to room temperature, packaged and sealed in glass vials. The stability tests described in Example 1 were performed and the test results were recorded.
Each formulation was prepared by combining urea, niacinamide, and metronidazole in water (q.s 100%). The mixture was kept either at room temperature or at a temperature of about 45° C. while stirring until dissolved. The solutions were permitted to cool to room temperature, packaged and sealed in glass vials. The stability tests described in Example 1 were performed and the test results were recorded.

[2] = at 25 °C; cited from earlier work

Compound: NC(N)=O [urea]
- Concentration of urea needed to obtain a stable aqueous solution of 1.0% metronidazole ([1]; concentration of niacinamide is 1.0%): ≥ 5.0%
- Concentration of urea required to obtain a stable aqueous solution of 1.0% metronidazole ([1]; urea as the only solubility enhancing agent): about 10%
- Water solubility limit [2]: about 50 % by weight

Compound: Cc1ncc([N+](=O)[O-])n1CCO [Metronidazole, 1-(2-hydroxyethyl)-2-methyl-5-nitroimidazole]
- Results from stability test ([1]; 1.0% metronidazole + 1.0% urea + 3.0% niacinamide in water): Crystals
- Results from stability test ([1]; 1.0% metronidazole + 1.0% urea + 4.0% niacinamide in water): Clear
- Results from stability test ([1]; 1.0% metronidazole + 2% niacinamide in water): Crystals formed
- Results from stability test ([1]; 1.0% metronidazole + 3% niacinamide in water): Crystals formed
- Results from stability test ([1]; 1.0% metronidazole + 3.0% urea + 3.0% niacinamide in water): Clear
- Results from stability test ([1]; 1.0% metronidazole + 4% niacinamide in water): Crystals formed
- Results from stability test ([1]; 1.0% metronidazole + 4.0% urea + 1.0% niacinamide in water): Crystals
- Results from stability test ([1]; 1.0% metronidazole + 5% niacinamide in water): Clear
- Results from stability test ([1]; 1.0% metronidazole + 5.0% urea + 1.0% niacinamide in water): Clear
- Results from stability test ([1]; 1.0% metronidazole + 5.0% urea + 1.0% niacinamide in water, listed as metronidazole): stable
- Results from stability test ([1]; 1.0% metronidazole + 5.0% urea + 2.0% niacinamide in water): Clear
- Results from stability test ([1]; 1.0% metronidazole + 7% urea in water): Crystals formed
- Results from stability test ([1]; 1.0% metronidazole + 7% urea in water, listed as metronidazole): not sufficient to solubilize
- Results from stability test ([1]; 1.0% metronidazole + 8% urea in water): Crystals formed
- Results from stability test ([1]; 1.0% metronidazole + 9% urea in water): Crystals formed
- Results from stability test ([1]; 1.0% metronidazole + 10% urea in water): Clear
- Results from stability test ([1]; 1.2% metronidazole + 10.0% urea + 2.0% niacinamide in water): Clear
- Results from stability test ([1]; 1.5% metronidazole + 15.0% urea + 4.0% niacinamide in water): Clear

Compound: NC(=O)c1cccnc1 [niacinamide]
- Concentration of niacinamide needed to obtain a stable aqueous solution of 1.0% metronidazole ([1]; concentration of urea is 1.0%): about 4.0%
- Urea concentration functionally equivalent to 1% niacinamide in inducing the solubility enhancing effect ([1]; from Examples 2 and 3, 1.0% metronidazole): about 2%
- Concentration of niacinamide required to obtain a stable aqueous solution of 1.0% metronidazole ([1]; niacinamide as the only solubility enhancing agent): about 5%
- Water solubility limit [2]: about 50 % by weight
